Measurements from the NIST ThermoML archive (doi:10.1021/je200213h).

Key:
[1] = 101.33 kPa, Liquid, Capillary tube (Ostwald / Ubbelohde) method
[2] = xn = mol fraction of the nth substance listed; conditions: 101 kPa, Liquid, Capillary tube (Ostwald / Ubbelohde) method

CC(C)CCl [1-chloro-2-methylpropane]
[1]
Conditions | kinematic viscosity [m2/s]
283.15 K | 5.8e-07
298.15 K | 4.929e-07
313.15 K | 4.363e-07

CC(C)CCl [1-chloro-2-methylpropane] + CCC(C)CC
kinematic viscosity [m2/s], [2]
Conditions | 283.15 K | 298.15 K | 313.15 K
x2 = 0.0522 | 5.703e-07 | 4.87e-07 | 4.322e-07
x2 = 0.1013 | 5.618e-07 | 4.823e-07 | 4.275e-07
x2 = 0.2024 | 5.464e-07 | 4.717e-07 | 4.187e-07
x2 = 0.3032 | 5.324e-07 | 4.631e-07 | 4.113e-07
x2 = 0.4028 | 5.212e-07 | 4.55e-07 | 4.048e-07
x2 = 0.5056 | 5.115e-07 | 4.484e-07 | 3.994e-07
x2 = 0.604 | 5.043e-07 | 4.43e-07 | 3.951e-07
x2 = 0.7018 | 4.988e-07 | 4.396e-07 | 3.918e-07
x2 = 0.8002 | 4.949e-07 | 4.37e-07 | 3.896e-07
x2 = 0.898 | 4.93e-07 | 4.357e-07 | 3.881e-07
x2 = 0.9486 | 4.927e-07 | 4.355e-07 | 3.879e-07

CC(C)CCl [1-chloro-2-methylpropane] + CCCCCC
kinematic viscosity [m2/s], [2]
Conditions | 283.15 K | 298.15 K | 313.15 K
x2 = 0.0512 | 5.712e-07 | 4.863e-07 | 4.32e-07
x2 = 0.0999 | 5.631e-07 | 4.817e-07 | 4.282e-07
x2 = 0.2003 | 5.468e-07 | 4.711e-07 | 4.196e-07
x2 = 0.2993 | 5.339e-07 | 4.633e-07 | 4.128e-07
x2 = 0.4005 | 5.239e-07 | 4.566e-07 | 4.077e-07
x2 = 0.4977 | 5.171e-07 | 4.517e-07 | 4.041e-07
x2 = 0.598 | 5.12e-07 | 4.478e-07 | 4.017e-07
x2 = 0.6993 | 5.089e-07 | 4.462e-07 | 4.01e-07
x2 = 0.799 | 5.077e-07 | 4.455e-07 | 4.002e-07
x2 = 0.8967 | 5.092e-07 | 4.457e-07 | 4.006e-07
x2 = 0.9472 | 5.103e-07 | 4.474e-07 | 4.023e-07

CC(C)CCl [1-chloro-2-methylpropane] + CCCCCCC
kinematic viscosity [m2/s], [2]
Conditions | 283.15 K | 298.15 K | 313.15 K
x2 = 0.0507 | 5.818e-07 | 4.95e-07 | 4.381e-07
x2 = 0.0979 | 5.817e-07 | 4.97e-07 | 4.396e-07
x2 = 0.2004 | 5.851e-07 | 5.015e-07 | 4.438e-07
x2 = 0.3008 | 5.905e-07 | 5.064e-07 | 4.483e-07
x2 = 0.3993 | 5.97e-07 | 5.134e-07 | 4.536e-07
x2 = 0.4999 | 6.054e-07 | 5.215e-07 | 4.599e-07
x2 = 0.5973 | 6.156e-07 | 5.306e-07 | 4.663e-07
x2 = 0.6994 | 6.268e-07 | 5.403e-07 | 4.733e-07
x2 = 0.8006 | 6.397e-07 | 5.516e-07 | 4.809e-07
x2 = 0.9002 | 6.538e-07 | 5.633e-07 | 4.894e-07
x2 = 0.9491 | 6.615e-07 | 5.692e-07 | 4.94e-07

CCCCCl [1-chlorobutane]
[1]
Conditions | kinematic viscosity [m2/s]
283.15 K | 5.564e-07
298.15 K | 4.785e-07
313.15 K | 4.216e-07

CCCCCl [1-chlorobutane] + CCCCCC
kinematic viscosity [m2/s], [2]
Conditions | 283.15 K | 298.15 K | 313.15 K
x1 = 0.0508 | 5.501e-07 | 4.74e-07 | 4.182e-07
x1 = 0.0992 | 5.449e-07 | 4.701e-07 | 4.169e-07
x1 = 0.1972 | 5.351e-07 | 4.634e-07 | 4.118e-07
x1 = 0.2966 | 5.269e-07 | 4.577e-07 | 4.08e-07
x1 = 0.3976 | 5.198e-07 | 4.531e-07 | 4.048e-07
x1 = 0.5009 | 5.145e-07 | 4.495e-07 | 4.027e-07
x1 = 0.6006 | 5.112e-07 | 4.467e-07 | 4.011e-07
x1 = 0.6982 | 5.092e-07 | 4.451e-07 | 4.005e-07
x1 = 0.7972 | 5.082e-07 | 4.455e-07 | 4.01e-07
x1 = 0.8979 | 5.094e-07 | 4.464e-07 | 4.023e-07
x1 = 0.9472 | 5.103e-07 | 4.474e-07 | 4.027e-07
